In one series the test system is Canis familiaris. Description: AUC in dog at […], po. It is filed as ADME, organism-based, Canis lupus familiaris, Plasma. Details: dose 2.5 mg/kg, route oral. The settings on record: in vivo.
Series [1] can be described thus: Half life in dog at […], po. Further details: dose 2.5 mg/kg, route oral. Type of series: ADME, organism-based, Canis lupus familiaris. The settings on record: in vivo.
A short description of series [2]: Oral bioavailability in dog at […]. It is filed as ADME, organism-based, Canis lupus familiaris. Particulars: in vivo.
Series [3] can be described thus: Metabolic stability in human liver microsomes after 30 mins. The settings on record: read-out: Stability. It is filed as ADME, Microsome.
The target of series [4] is T1, Glucocorticoid receptor (Homo sapiens, UniProt P04150).
T1 sequence (P04150 whole entry): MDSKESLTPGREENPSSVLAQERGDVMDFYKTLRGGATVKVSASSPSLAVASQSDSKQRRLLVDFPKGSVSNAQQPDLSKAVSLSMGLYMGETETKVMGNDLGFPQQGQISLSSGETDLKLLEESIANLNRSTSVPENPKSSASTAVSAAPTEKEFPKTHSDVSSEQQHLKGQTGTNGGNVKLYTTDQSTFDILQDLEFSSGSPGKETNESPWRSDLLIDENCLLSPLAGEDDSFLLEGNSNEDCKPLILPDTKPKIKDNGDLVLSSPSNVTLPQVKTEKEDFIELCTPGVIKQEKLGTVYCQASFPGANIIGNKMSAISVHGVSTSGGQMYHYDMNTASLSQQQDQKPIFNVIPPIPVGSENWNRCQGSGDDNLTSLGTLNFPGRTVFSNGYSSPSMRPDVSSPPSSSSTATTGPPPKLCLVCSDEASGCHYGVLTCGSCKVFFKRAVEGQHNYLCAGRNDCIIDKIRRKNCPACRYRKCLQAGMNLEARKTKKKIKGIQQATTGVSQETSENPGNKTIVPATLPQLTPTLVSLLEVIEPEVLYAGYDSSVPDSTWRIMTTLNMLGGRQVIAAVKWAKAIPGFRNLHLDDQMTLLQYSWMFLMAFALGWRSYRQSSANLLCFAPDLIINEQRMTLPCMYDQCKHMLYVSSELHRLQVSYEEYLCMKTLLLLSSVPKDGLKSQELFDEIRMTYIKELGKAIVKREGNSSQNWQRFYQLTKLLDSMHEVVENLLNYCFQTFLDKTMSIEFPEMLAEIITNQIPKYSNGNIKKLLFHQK
Description: Displacement of [3H]dexamethasone from human recombinant GR.

Series [5] concerns the target T1, Glucocorticoid receptor. Description: Antagonist activity at GR in SW1353/MMTV5 cells assessed as inhibition of dexamethasone-induced luciferase expression. It is filed as functional, cell-based.
Series [6] is described as follows: Cmax in rat at 5 mg/kg, po. It is filed as ADME, organism-based. Further details: dose 5 mg/kg, route oral. Particulars: in vivo.
For a further series, the system named is Rattus norvegicus. Description: AUC in rat at 5 mg/kg, po. Type of series: ADME, organism-based, Plasma. Details: dose 5 mg/kg, route oral. The settings on record: in vivo.
Series [7] in a line: Half life in rat at 5 mg/kg, po. The settings on record: in vivo. Type of series: ADME, organism-based. Further details: dose 5 mg/kg, route oral.
Series [8] is described as follows: Oral bioavailability in rat at 5 mg/kg. Type of series: ADME, organism-based. The settings on record: in vivo.
Series [9] in a line: Ratio of drug level in brain to plasma in rat at 5 mg/kg, po. It is filed as ADME, organism-based. Further details: dose 5 mg/kg, route oral. Particulars: read-out: BPR.
Series [10] can be described thus: Cmax in dog at […], po. It is filed as ADME, organism-based, Canis lupus familiaris. Details: dose 2.5 mg/kg, route oral. Particulars: in vivo.

Here are results for seven molecules from ChEMBL document CHEMBL1142367, “1H-Pyrazolo[3,4-g]hexahydro-isoquinolines as selective glucocorticoid receptor antagonists with high functional activity” (Bioorg Med Chem Lett, 2008).

The structures appear in SMILES notation. pKi: −log10 of the molar value.

Turning to `COC[C@]12Cc3cnn(-c4ccc(F)cc4)c3C=C1CCN(S(=O)(=O)c1ccc(F)cc1)C2`, the AUC in the series with Canis familiaris is 1.676 µg/h/mL; in the series on Rattus norvegicus, 0.621 µg/h/mL. Moreover, the results for the half-life in series [1] and in series [7] were 4.2 h and 2.1 h, respectively. For the same molecule, the bioavailability in [2] came to 54%; in series [8], 22%. For the same molecule, in series [3], the remaining at 0.5 h was 57%. The negative logarithm of the Ki (pKi) at Glucocorticoid receptor [4] is 8.85; at Glucocorticoid receptor [5], 7.48. In addition, the Cmax in series [6] was 106 ng/mL; in series [10], 381 ng/mL. Also, the Kp in series [9] was found to be 1.1.

Consider `CC(C)(C)c1ccc(S(=O)(=O)N2CCC3=Cc4c(cnn4-c4ccc(F)cc4)C[C@]3(CN3CCOCC3)C2)cc1`, for which the pKi on Glucocorticoid receptor [4] was 9.05; on Glucocorticoid receptor [5], 8.15. Further, the highest concentration (Cmax) in [6] turned out to be 75 ng/mL. This molecule yielded an AUC in the series with Rattus norvegicus of 0.302 µg/h/mL. Moreover, in [7], the half-life was 2 h. In series [8], the bioavailability worked out at 10%. The Kp in series [9] came out at 0.1.

In the case of `COC[C@]12Cc3cnn(-c4ccc(F)cc4)c3C=C1CCN(S(=O)(=O)c1ccc(C(F)(F)F)cc1)C2`, the figures for the AUC in the series on Canis familiaris and in the series on Rattus norvegicus were 3.638 µg/h/mL and 0.966 µg/h/mL, respectively. Besides, the half-life in series [1] was 6.7 h; in series [7], 3.4 h. Besides, the bioavailability was 58% in series [2] and 16% in series [8]. For the same molecule, the negative-log Ki (pKi) was 9.10 at Glucocorticoid receptor [4] and 7.55 at Glucocorticoid receptor [5]. Moreover, the highest concentration (Cmax) in series [6] is 163 ng/mL; in series [10] it was 647 ng/mL. Moreover, in series [9], the Kp amounted to 0.83.

For `CC(C)(C)c1ccc(S(=O)(=O)N2CCC3=Cc4c(cnn4-c4ccc(F)cc4)C[C@]3(C)C2)cc1`, the AUC in the series with Canis familiaris was found to be 1.684 µg/h/mL; in the series with Rattus norvegicus it was 1.009 µg/h/mL. Also, the values for the half-life in [1] and in series [7] were 4.2 h and 2.7 h, respectively. Moreover, the bioavailability in series [2] amounted to 26%; in series [8], 13%. Moreover, the pKi at Glucocorticoid receptor [4] was 8.92; at Glucocorticoid receptor [5], 7.28. Further, the Cmax is 199 ng/mL in [6] and 524 ng/mL in series [10]. For the same molecule, the Kp in series [9] turned out to be 0.07.

For `COC[C@]12Cc3cnn(-c4ccc(F)cc4)c3C=C1CCN(S(=O)(=O)c1ccc(C(C)(C)C)cc1)C2`, the values for the negative logarithm of the Ki (pKi) on Glucocorticoid receptor [4] and at Glucocorticoid receptor [5] were 9.10 and 8.11, respectively. For the same molecule, in series [6], the highest concentration (Cmax) is 94 ng/mL. The same molecule yielded an AUC with Rattus norvegicus of 0.43 µg/h/mL. Besides, the half-life in [7] was 2.9 h. This molecule displayed a bioavailability in series [8] of 11%. In series [9], the Kp was 0.1.

With `COC[C@]12Cc3cnn(-c4ccc(F)cc4)c3C=C1CCN(S(=O)(=O)c1ccccc1)C2`, the AUC was determined as 0.894 µg/h/mL with Canis familiaris and 0.112 µg/h/mL in the series on Rattus norvegicus. The half-life in series [1] is 5.9 h; in [7], 3.6 h. The results for the bioavailability in series [2] and in series [8] were 20% and 3%, respectively. The negative-log Ki (pKi) on Glucocorticoid receptor [4] is 9.00; at Glucocorticoid receptor [5], 7.70. Also, the Cmax came to 23 ng/mL in [6] and 258 ng/mL in series [10]. Further, the Kp in series [9] stood at 0.75.

Regarding `COCCOC[C@]12Cc3cnn(-c4ccc(F)cc4)c3C=C1CCN(S(=O)(=O)c1ccc(F)cc1)C2`, in [3], the remaining at 0.5 h came to 7%. The pKi is 9.22 at Glucocorticoid receptor [4] and 8.28 on Glucocorticoid receptor [5].
